Test results published in patent publication US20240000767A1, “COMBINATION OF AN ALPHA2-ADRENOCEPTOR SUBTYPE C (ALPHA-2C) ANTAGONIST WITH A TASK1/3 CHANNEL BLOCKER FOR THE TREATMENT OF SLEEP APNEA” (Bayer Aktiengesellschaft, priority 2020, published 2024).

Each molecule was assayed against human ADRA2C receptor (Homo sapiens (Human), UniProt P18825) (assay: In vitro activity assay to determine the inhibition of recombinant ADRA2C (CHO-K1 cells, aequorin bioluminescence)). Settings: inhibition of noradrenaline-induced bioluminescence signal; some mean values from multiple determinations; read-out: ARα2C IC50.
Chain of human ADRA2C receptor (P18825 whole entry): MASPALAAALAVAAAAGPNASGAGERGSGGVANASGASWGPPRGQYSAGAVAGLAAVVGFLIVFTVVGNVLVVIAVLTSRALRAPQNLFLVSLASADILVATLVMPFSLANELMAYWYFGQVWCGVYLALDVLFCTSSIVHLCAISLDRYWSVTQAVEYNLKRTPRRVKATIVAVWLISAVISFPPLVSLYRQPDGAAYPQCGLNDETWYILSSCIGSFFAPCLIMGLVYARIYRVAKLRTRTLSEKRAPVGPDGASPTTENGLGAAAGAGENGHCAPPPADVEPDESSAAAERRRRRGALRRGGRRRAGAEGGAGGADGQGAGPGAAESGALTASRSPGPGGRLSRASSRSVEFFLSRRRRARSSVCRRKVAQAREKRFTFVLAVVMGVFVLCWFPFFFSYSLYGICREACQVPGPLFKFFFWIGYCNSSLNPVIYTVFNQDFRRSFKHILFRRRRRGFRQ
Format: cell-based
Procedure, shortened: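 IC50 is the concentration halving the agonist (noradrenaline)-evoked rise in aequorin luminescence, fitted by 4-parameter Hill function. Read in stable Gαq/aequorin CHO-K1 cells expressing recombinant human ADRA2C.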

Point of comparison: `C[C@@H]1CCCN(C2CCN(c3ncc(C(=O)NCc4ccc(F)cc4)s3)CC2)C1` [Example 84], IC50 65 nM. Against it:
- Cc1cccc(CNC(=O)c2cnc(N3CCC(N4CCC[C@@H](C)C4)CC3)s2)c1 [Example 36, N-(3-methylbenzyl)-2-[(3R)-3-methyl[1,4′-bipiperidin]-1′-yl]-1,3-thiazole-5-carboxamide] — 2.9-fold higher, 190 nM
- Cc1ccccc1CNC(=O)c1cnc(N2CCC(N3CCC[C@@H](C)C3)CC2)s1 [Example 37, N-(2-methylbenzyl)-2-[(3R)-3-methyl[1,4′-bipiperidin]-1′-yl]-1,3-thiazole-5-carboxamide] — 3.1-fold higher, 200 nM
- O=C(NCc1ncc(F)cc1F)c1cnc(N2CCC(N3CCC[C@H](C(F)F)C3)CC2)s1 [Example 38, 2-[(3S)-3-(Difluoromethyl)[1,4′-bipiperidin]-1′-yl]-N-[(3,5-difluoropyridin-2-yl)methyl]-1,3-thiazole-5-carboxamide] — 36-fold higher, 2340 nM
- O=C(NCc1ncc(F)cc1F)c1cnc(N2CCC(N3CCC[C@@H](C(F)F)C3)CC2)s1 [Example 39, 2-[(3R)-3-(Difluoromethyl)[1,4′-bipiperidin]-1′-yl]-N-[(3,5-difluoropyridin-2-yl)methyl]-1,3-thiazole-5-carboxamide] — 2.1-fold higher, 135 nM
- O=C(NCc1ncc(F)cc1F)c1cnc(N2CCC(N3CCC[C@@H](CF)C3)CC2)s1 [Example 41, N-[(3,5-Difluoropyridin-2-yl)methyl]-2-[(3R)-3-(fluoromethyl)[1,4′-bipiperidin]-1′-yl]-1,3-thiazole-5-carboxamide] — 3.7-fold higher, 243 nM
- O=C(NCc1ncc(F)cc1F)c1cnc(N2CCC(N3CCC[C@@H](C(F)(F)F)C3)CC2)s1 [Example 43, N-[(3,5-Difluoropyridin-2-yl)methyl]-2-[(3R)-3-(trifluoromethyl)[1,4′-bipiperidin]-1′-yl]-1,3-thiazole-5-carboxamide] — 2.5-fold lower, 26 nM
- O=C(NCc1ncc(F)cc1F)c1cnc(N2CCC(N3CCC[C@@H](OCC4CC(F)(F)C4)C3)CC2)s1 [Example 44, 2-{(3R)-3-[(3,3-Difluorocyclobutyl)methoxy][1,4′-bipiperidin]-1′-yl}-N-[(3,5-difluoropyridin-2-yl)methyl]-1,3-thiazole-5-carboxamide] — 1.6-fold lower, 41.2 nM
- C[C@@H]1CCCN(C2CCN(c3noc(C(=O)NCc4ncc(F)cc4F)n3)CC2)C1 [Example 49, N-[(3,5-Difluoropyridin-2-yl)methyl]-3-[(3R)-3-methyl[1,4′-bipiperidin]-1′-yl]-1,2,4-oxadiazole-5-carboxamide] — within 1.5-fold, 56 nM
- C[C@@H]1CCCN(C2CCN(c3ncc(C(=O)NCc4ncc(Cl)s4)s3)CC2)C1 [Example 56, N-[(5-Chloro-1,3-thiazol-2-yl)methyl]-2-[(3R)-3-methyl[1,4′-bipiperidin]-1′-yl]-1,3-thiazole-5-carboxamide] — 3.7-fold higher, 240 nM
- C[C@@H]1CCCN(C2CCN(c3ncc(C(=O)NCc4ccc(F)s4)s3)CC2)C1 [Example 57, N-[(5-Fluoro-2-thienyl)methyl]-2-[(3R)-3-methyl[1,4′-bipiperidin]-1′-yl]-1,3-thiazole-5-carboxamide] — 13-fold higher, 830 nM
- C[C@@H]1CCCN(C2CCN(c3ncc(C(=O)NCc4ccncc4)s3)CC2)C1 [Example 58, 2-[(3R)-3-Methyl[1,4′-bipiperidin]-1′-yl]-N-(pyridin-4-ylmethyl)-1,3-thiazole-5-carboxamide] — 13-fold higher, 870 nM
- CC1(C)CCCN(C2CCN(c3ncc(C(=O)NCc4ncc(F)cc4F)s3)CC2)C1 [Example 63, N-[(3,5-Difluoropyridin-2-yl)methyl]-2-(3,3-dimethyl[1,4′-bipiperidin]-1′-yl)-1,3-thiazole-5-carboxamide] — 8.8-fold higher, 570 nM
- O=C(NCc1ncc(F)cc1F)c1cnc(N2CCC(N3CCCC4(CC4)C3)CC2)s1 [Example 64, 2-[4-(5-Azaspiro[2.5]octan-5-yl)piperidin-1-yl]-N-[(3,5-difluoropyridin-2-yl)methyl]-1,3-thiazole-5-carboxamide] — 46-fold lower, 1.4 nM
- C[C@@H]1CCCN(C2CCCN(c3ncc(C(=O)NCc4ncc(F)cc4F)s3)CC2)C1 (stereo partly drawn) [Example 71, N-[(3,5-Difluoropyridin-2-yl)methyl]-2-{4-[(3R)-3-methylpiperidin-1-yl]azepan-1-yl}-1,3-thiazole-5-carboxamide] — 1.5-fold higher, 100 nM
- Cc1ccc(CNC(=O)c2cnc(N3CCC(N4CCC[C@@H](C)C4)CC3)s2)cn1 [Example 72, 2-[(3R)-3-methyl[1,4′-bipiperidin]-1′-yl]-N-[(6-methylpyridin-3-yl)methyl]-1,3-thiazole-5-carboxamide] — 2.8-fold higher, 180 nM
- C[C@@H]1CCCN(C2CCN(c3ncc(C(=O)NCc4ccccc4)s3)CC2)C1 [Example 73, N-Benzyl-2-[(3R)-3-methyl[1,4′-bipiperidin]-1′-yl]-1,3-thiazole-5-carboxamide] — 3.4-fold higher, 219 nM
- CC(F)CCOCC1CCCN(C2CCN(c3ncc(C(=O)NCc4ncc(F)cc4F)s3)CC2)C1 (stereo not drawn) [Example 74, diamix-N-[(3,5-Difluoropyridin-2-yl)methyl]-2-[3-({[3-fluorobutyl]oxy}methyl)[1,4′-bipiperidin]-1′-yl]-1,3-thiazole-5-carboxamide] — 4.4-fold higher, 285 nM
- C[C@@H]1CCCN(C2CCN(c3ncc(C(=O)NCc4ccncc4F)s3)CC2)C1 [Example 76, N-[(3-Fluoropyridin-4-yl)methyl]-2-[(3R)-3-methyl[1,4′-bipiperidin]-1′-yl]-1,3-thiazole-5-carboxamide] — 6.2-fold higher, 400 nM
- Cc1cc(C)c(CNC(=O)c2cnc(N3CCC(N4CCC[C@@H](C)C4)CC3)s2)cn1 [Example 78, N-[(4,6-Dimethylpyridin-3-yl)methyl]-2-[(3R)-3-methyl[1,4′-bipiperidin]-1′-yl]-1,3-thiazole-5-carboxamide] — 12-fold higher, 755 nM
- C[C@@H]1CCCN(C2CCN(c3ncc(C(=O)NCc4c(Cl)cnn4C)s3)CC2)C1 [Example 79, N-[(4-Chloro-1-methyl-1H-pyrazol-5-yl)methyl]-2-[(3R)-3-methyl[1,4′-bipiperidin]-1′-yl]-1,3-thiazole-5-carboxamide] — within 1.5-fold, 50.3 nM
- COc1cccc(CNC(=O)c2cnc(N3CCC(N4CCC[C@@H](C)C4)CC3)s2)c1 [Example 80] — within 1.5-fold, 90.5 nM
- C[C@@H]1CCCN(C2CCN(c3ncc(C(=O)NCc4cc(F)ccc4F)s3)CC2)C1 [Example 81] — 2.9-fold lower, 22.2 nM
- C[C@@H]1CCCN(C2CCN(c3ncc(C(=O)NCc4cccc(O)c4)s3)CC2)C1 [Example 82] — 1.6-fold higher, 102 nM
- CC(CNC(=O)c1cnc(N2CCC(N3CCC[C@@H](C)C3)CC2)s1)c1ccccc1 (stereo partly drawn) [Example 83] — 1.5-fold higher, 98.1 nM
- C[C@@H]1CCCN(C2CCN(c3ncc(C(=O)NCc4cccnc4)s3)CC2)C1 [Example 85] — 9.2-fold higher, 600 nM
- C[C@@H]1CCCN(C2CCN(c3ncc(C(=O)NCc4cccc(F)c4)s3)CC2)C1 [Example 86] — 2.3-fold lower, 28 nM
- C[C@@H]1CCCN(C2CCN(c3ncc(C(=O)NCc4ccccc4F)s3)CC2)C1 [Example 87] — 2.5-fold lower, 25.5 nM
- C[C@@H]1CCCN(C2CCN(c3ncc(C(=O)Nc4ccc(F)c(C#N)c4)s3)CC2)C1 [Example 89] — 3.5-fold higher, 230 nM
- C[C@@H]1CCCN(C2CCN(c3ncc(C(=O)N(C)Cc4cccnc4)s3)CC2)C1 [Example 90] — within 1.5-fold, 97 nM
- C[C@@H]1CCCN(C2CCN(c3ncc(C(=O)N(C)Cc4ccncc4)s3)CC2)C1 [Example 91] — 4.4-fold higher, 284 nM
- C[C@@H]1CCCN(C2CCN(c3ncc(C(=O)N(C)Cc4ccccc4)s3)CC2)C1 [Example 92] — within 1.5-fold, 85 nM
- C[C@@H]1CCCN(C2CCN(c3ncc(C(=O)Nc4ccccc4C4CC4)s3)CC2)C1 [Example 93] — 9.7-fold higher, 630 nM
